Measured values taken from patent publication US6395896B2, “Pyridazine derivatives, manufacturing method and related composition” (Shiseido Co., Ltd., priority 1999, dated 2002).

How the values were obtained:
[1] = Colorant stabilization effect (photostabilizer, sunlight exposure); design: key to Sunlight exposure (80 MJ) Appearance: A: No change; B: No almost change; C: Yes change; key to Sunlight exposure (80 MJ) ΔE: ΔE color difference (Lab) vs. color before sunlight exposure; details: photostabilizer 0.05 wt %
Method: First of all, the photostabilization effect and appearance change of a composition in each pigment were studied by the following evaluation formulation.
Each test sample was prepared. Observation of appearance change (visual evaluation) and measurement of color difference (ΔE) were carried out in samples exposed to sunlight exposure (around 80 MJ).
Color difference was measured by Lab coordinate system with spectrophotometer. Color difference was calculated on the basis of the color before sunlight exposure. Namely, from measured value (L1,a1,b1) before sunlight exposure, color difference (ΔE) was calculated by following formula.

[2] = Perfume stabilization effect (photostabilizer, sunlight exposure, judgement by perfumier); design: key to Sunlight exposure (80 MJ) Smell evaluation / Sunlight exposure (80 MJ) evaluation: A: No change; B: No almost change; C: Yes change
Method: Next, the photostabilization effect for each perfume was studied by the following evaluation formulation.
Each test sample was prepared. Change of smell of sample exposed to sunlight (80 MJ) was observed (judgement by perfumier).

[3] = Drug stabilization effect (photostabilizer, sunlight exposure); design: key to Sunlight exposure (80 MJ) Appearance: A: No change; B: No almost change; C: Yes change; details: photostabilizer 0.05, amounts wt %
Method: Next, the photo stabilization effect and changes in appearance in drug compositions were studied according to the following evaluation formulation.
Each test sample was prepared. Appearance changes of the samples exposed to sunlight (80 MJ) was observed (visual evaluation). Also, residual yield was measured by liquid chromatography.

[4] = Pigment stabilization effect (sequestering agent combination); design: key to Sunlight exposure (80 MJ) Appearance: A: No change; B: No almost change; C: Yes change; key to Sunlight exposure (80 MJ) ΔE: color difference ΔE in Lab space vs. color before sunlight exposure; details: photostabilizer 0, amounts wt %
Method: First of all, the photostabilization effect and appearance changes of a composition for each pigment were studied by the following evaluation formulation.
Each test sample was prepared. Observation of appearance changes (visual evaluation) and measurement of color difference (ΔE) were carried out for samples exposed to sunlight (around 80 MJ).
Color difference was measured by Lab coordinate system with spectrophotometer. Color difference was calculated based on the color before sunlight exposure. Namely, from the measured value (L1,a1,b1) before sunlight exposure, color difference (ΔE) was calculated by following formula.

[5] = Perfume stabilization effect (sequestering agent combination); design: key to Sunlight exposure (80 MJ) Smell evaluation: A: No change; B: No almost change; C: Yes change
Method: Next, for combinations with sequestering agent, photostabilization effect for each perfume was studied by the following evaluation formulation.
Each test sample was prepared. Smell change of samples exposed to sunlight (80 MJ) was observed (judgement by perfumier).

[6] = Base perfume Fruity 0.03 wt %, photostabilizer 0.1 wt %
[7] = Base perfume Muguet 0.03 wt %, photostabilizer 0.05 wt %
[8] = Base perfume Rose 0.03 wt %, photostabilizer 0.05 wt %
[9] = Base perfume Spicy 0.03 wt %, photostabilizer 0.2 wt %
[10] = Base perfume Woody 0.03 wt %, photostabilizer 0.1 wt %
[11] = Natural perfume Jasmine oil 0.03 wt %, photostabilizer 0.05 wt %
[12] = Natural perfume Lavender oil 0.03 wt %, photostabilizer 0.1 wt %
[13] = Natural perfume Neroli oil 0.03 wt %, photostabilizer 0.1 wt %
[14] = Natural perfume Rose oil 0.03 wt %, photostabilizer 0.05 wt %
[15] = Natural perfume Ylang ylang oil 0.03 wt %, photostabilizer 0.2 wt %
[16] = Synthetic perfume Citral 0.03 wt %, photostabilizer 0.1 wt %
[17] = Synthetic perfume Limonene 0.03 wt %, photostabilizer 0.05 wt %
[18] = Synthetic perfume Linalool 0.03 wt %, photostabilizer 0.05 wt %
[19] = Synthetic perfume Linalyl acetate 0.03 wt %, photostabilizer 0.1 wt %
[20] = Synthetic perfume Rose oxide 0.03 wt %, photostabilizer 0.2 wt %
[21] = drug 2-o-α-α-glucopyranosyl-L-ascorbic acid 2.0
[22] = drug Dibutylhydroxytoluene 0.01
[23] = drug Dipotassium glycyrrhizinate 0.05
[24] = drug L-ascorbic acid 2-(dl-α-tocopheryl hydrogen phosphate) potassium salt 0.01
[25] = colorant Green No. 3 0.0001, sequestering agent 0.03 alone
[26] = colorant Red No. 106 0.0001, sequestering agent 0.02 alone
[27] = colorant Red No. 401 0.001, sequestering agent 0.1 alone
[28] = colorant Yellow No. 5 0.001, sequestering agent 0.02 alone

## COc1cc(O)c(C(=O)c2ccccc2)cc1S(=O)(=O)[O-].[Na+] [2-Hydroxy-4-methoxybenzophenone-5-sodium sulfonate, reference compound]
[1]; Blue No. 1 0.0001 wt %
  Sunlight exposure (80 MJ) Appearance: B
  Sunlight exposure (80 MJ) ΔE: 1.67
[1]; Green No. 3 0.0001 wt %
  Sunlight exposure (80 MJ) Appearance: B
  Sunlight exposure (80 MJ) ΔE: 0.74
[1]; Red No. 106 0.0001 wt %
  Sunlight exposure (80 MJ) Appearance: B
  Sunlight exposure (80 MJ) ΔE: 0.98
[1]; Red No. 213 0.0001 wt %
  Sunlight exposure (80 MJ) Appearance: B
  Sunlight exposure (80 MJ) ΔE: 1.28
[1]; Red No. 227 0.0001 wt %
  Sunlight exposure (80 MJ) Appearance: B
  Sunlight exposure (80 MJ) ΔE: 0.80
[1]; Red No. 401 0.001 wt %
  Sunlight exposure (80 MJ) Appearance: B
  Sunlight exposure (80 MJ) ΔE: 1.39
[1]; Yellow No. 5 0.001 wt %
  Sunlight exposure (80 MJ) Appearance: B
  Sunlight exposure (80 MJ) ΔE: 0.78
[1]; Yellow No. 203 0.001 wt %
  Sunlight exposure (80 MJ) Appearance: B
  Sunlight exposure (80 MJ) ΔE: 0.76
[2]; [6]
  Sunlight exposure (80 MJ) Smell evaluation: B
[2]; [7]
  Sunlight exposure (80 MJ) Smell evaluation: B
[2]; [8]
  Sunlight exposure (80 MJ) Smell evaluation: B
[2]; [9]
  Sunlight exposure (80 MJ) Smell evaluation: B
[2]; [10]
  Sunlight exposure (80 MJ) Smell evaluation: B
[2]; [11]
  Sunlight exposure (80 MJ) Smell evaluation: B
[2]; [12]
  Sunlight exposure (80 MJ) Smell evaluation: B
[2]; [13]
  Sunlight exposure (80 MJ) Smell evaluation: B
[2]; [14]
  Sunlight exposure (80 MJ) Smell evaluation: B
[2]; [15]
  Sunlight exposure (80 MJ) Smell evaluation: B
[2]; [16]
  Sunlight exposure (80 MJ) Smell evaluation: B
[2]; [17]
  Sunlight exposure (80 MJ) Smell evaluation: B
[2]; [18]
  Sunlight exposure (80 MJ) Smell evaluation: B
[2]; [19]
  Sunlight exposure (80 MJ) Smell evaluation: B
[2]; [20]
  Sunlight exposure (80 MJ) Smell evaluation: B
[3]; [21]
  Sunlight exposure (80 MJ) Appearance: B
  Sunlight exposure (80 MJ) Residual yield [%]: 97.8%
[3]; [22]
  Sunlight exposure (80 MJ) Appearance: B
  Sunlight exposure (80 MJ) Residual yield [%]: 94.8%
[3]; [23]
  Sunlight exposure (80 MJ) Appearance: B
  Sunlight exposure (80 MJ) Residual yield [%]: 97.5%
[3]; [24]
  Sunlight exposure (80 MJ) Appearance: B
  Sunlight exposure (80 MJ) Residual yield [%]: 95.0%
[3]; drug Salicylic acid 0.1
  Sunlight exposure (80 MJ) Appearance: B
  Sunlight exposure (80 MJ) Residual yield [%]: 98.0%

## CCCCCCCCOC(=O)C=Cc1ccc(OC)cc1 [Octyl p-methoxycinnamate, reference compound]
[1]; Blue No. 1 0.0001 wt %
  Sunlight exposure (80 MJ) Appearance: C
  Sunlight exposure (80 MJ) ΔE: 5.23
[1]; Green No. 3 0.0001 wt %
  Sunlight exposure (80 MJ) Appearance: C
  Sunlight exposure (80 MJ) ΔE: 1.64
[1]; Red No. 106 0.0001 wt %
  Sunlight exposure (80 MJ) Appearance: C
  Sunlight exposure (80 MJ) ΔE: 1.95
[1]; Red No. 213 0.0001 wt %
  Sunlight exposure (80 MJ) Appearance: C
  Sunlight exposure (80 MJ) ΔE: 2.55
[1]; Red No. 227 0.0001 wt %
  Sunlight exposure (80 MJ) Appearance: C
  Sunlight exposure (80 MJ) ΔE: 1.22
[1]; Red No. 401 0.001 wt %
  Sunlight exposure (80 MJ) Appearance: C
  Sunlight exposure (80 MJ) ΔE: 4.76
[1]; Yellow No. 5 0.001 wt %
  Sunlight exposure (80 MJ) Appearance: C
  Sunlight exposure (80 MJ) ΔE: 1.56
[1]; Yellow No. 203 0.001 wt %
  Sunlight exposure (80 MJ) Appearance: C
  Sunlight exposure (80 MJ) ΔE: 2.43
[2]; [6]
  Sunlight exposure (80 MJ) Smell evaluation: C
[2]; [7]
  Sunlight exposure (80 MJ) Smell evaluation: C
[2]; [8]
  Sunlight exposure (80 MJ) Smell evaluation: C
[2]; [9]
  Sunlight exposure (80 MJ) Smell evaluation: C
[2]; [10]
  Sunlight exposure (80 MJ) Smell evaluation: C
[2]; [11]
  Sunlight exposure (80 MJ) Smell evaluation: C
[2]; [12]
  Sunlight exposure (80 MJ) Smell evaluation: C
[2]; [13]
  Sunlight exposure (80 MJ) Smell evaluation: C
[2]; [14]
  Sunlight exposure (80 MJ) Smell evaluation: C
[2]; [15]
  Sunlight exposure (80 MJ) Smell evaluation: C
[2]; [16]
  Sunlight exposure (80 MJ) Smell evaluation: C
[2]; [17]
  Sunlight exposure (80 MJ) Smell evaluation: C
[2]; [18]
  Sunlight exposure (80 MJ) Smell evaluation: C
[2]; [19]
  Sunlight exposure (80 MJ) Smell evaluation: C
[2]; [20]
  Sunlight exposure (80 MJ) Smell evaluation: C
[3]; [21]
  Sunlight exposure (80 MJ) Appearance: C
  Sunlight exposure (80 MJ) Residual yield [%]: 92.3%
[3]; [22]
  Sunlight exposure (80 MJ) Appearance: C
  Sunlight exposure (80 MJ) Residual yield [%]: 71.7%
[3]; [23]
  Sunlight exposure (80 MJ) Appearance: C
  Sunlight exposure (80 MJ) Residual yield [%]: 90.8%
[3]; [24]
  Sunlight exposure (80 MJ) Appearance: C
  Sunlight exposure (80 MJ) Residual yield [%]: 82.1%
[3]; drug Salicylic acid 0.1
  Sunlight exposure (80 MJ) Appearance: C
  Sunlight exposure (80 MJ) Residual yield [%]: 92.2%

## Sodium polyphosphate
[4]; [25]
  Sunlight exposure (80 MJ) Appearance: C
  Sunlight exposure (80 MJ) ΔE: 2.1
[4]; [26]
  Sunlight exposure (80 MJ) Appearance: C
  Sunlight exposure (80 MJ) ΔE: 2.92
[4]; [27]
  Sunlight exposure (80 MJ) Appearance: C
  Sunlight exposure (80 MJ) ΔE: 7.14
[4]; [28]
  Sunlight exposure (80 MJ) Appearance: C
  Sunlight exposure (80 MJ) ΔE: 1.75

## O=C([O-])CNCCN(CC(=O)[O-])CC(=O)[O-].[Na+].[Na+].[Na+] [Trisodium ethylenediamine triacetate]
[5]
  Sunlight exposure (80 MJ) Smell evaluation: C
